Test system: mouse kidney
Test: RNA-seq of kidney gene expression over time in FA nephropathy progression (Table 1)
Format: in vivo
Excerpt: Identification of Candidate Genes for Biomarkers of Kidney Fibrosis Through RNA-Seq. […] To select genes that are indicative of fibrosis candidates were considered from this later group that had robust upregulation (>5-fold with >100 read counts at peak) over time as fibrosis progresses. Another important criteria was the location of the protein product of the gene, either in extracellular matrix or transmembrane, to increase the chance of detecting it in the urine and use it as a biomarker(11).
(§1) RNA samples (n=3 mice/time point) were sequenced at the Bioplymers Facility at the Harvard Medical School. Libraries were prepared from 10 ng total RNA per sample using the IntegenX Apollo 324 system and NuGEN SPIA reagents. Libraries were multiplexed in groups of three per lane of a flowcell and 50 cycle, paired-end sequencing was performed on an Illumina HiSeq2000 instrument. Illumina sequence quality was surveyed with FastQC (available on the world wide web at bioinformatics.babraham.ac.uk/projects/fastqc/) to ensure suitability of library generation and sequencing for further analysis. Adapters and lower quality bases were trimmed with Cutadapt (available on the world wide web at code.google.com/p/cutadapt/), using a Phred quality cutoff of 20, and reassessed with FastQC. Trimmed reads were aligned to the Ensembl NCBIM37 Mus musculus genome build with TopHat2. Aligned reads were summarized at the gene level against the Illumina iGenomes (available on the world wide web at tophat.cbcb.umd.edu/igenomes.html) NCBIM37 Mus musculus gene annotations using HTSeq (available on the world wide web at huber.embl.de/users/anders/HTSeq/doc/overview.html). […] The full dataset is available in the NCBI GEO database with the accession number GSE65267. Raw data is accessible on the world wide web at ncbi.nlm.nih.gov/geo/query/acc.cgi?acc=GSE65267.
Mice were sacrificed at 1, 2, 3, 7 and 14 days following administration. […] All mice were sacrificed at 14 days.
as §1, with “The quantity and quality of mRNA” for “RNA samples (n=3 mice/time point)”, “assayed on an Agilent 2200 TapeStation instrument and by SYBR qPCR assay.” for “sequenced at the Bioplymers Facility at the Harvard Medical School.”, “(https://code.google.com/p/cutadapt/),” for “(available on the world wide web at code.google.com/p/cutadapt/),”

Nc1nc2ncc(CNc3ccc(C(=O)N[C@@H](CCC(=O)O)C(=O)O)cc3)nc2c(=O)[nH]1 [FA, folic acid]
7SK RNA mean fold change from normal (Day 1): 0.04 fold
2310042D19Rik mean fold change from normal (Day 1): 0.09 fold
4930533I22Rik mean fold change from normal (Day 1): 0.11 fold
4933417A18Rik mean fold change from normal (Day 1): 0.04 fold
8430408G22Rik mean fold change from normal (Day 1): 0.09 fold
9030619P08Rik mean fold change from normal (Day 1): 0.01 fold
Slc2a5 mean fold change from normal (Day 1): 0.07 fold
Slc4a1 mean fold change from normal (Day 1): 0.11 fold
Slc5a4a mean fold change from normal (Day 1): 0.02 fold
Slc5a12 mean fold change from normal (Day 1): 0.06 fold
Slc6a12 mean fold change from normal (Day 1): 0.02 fold
Slc7a13 mean fold change from normal (Day 1): 0.02 fold
Slc28a1 mean fold change from normal (Day 1): 0.02 fold
Slc34a1 mean fold change from normal (Day 1): 0.05 fold
Slc34a2 mean fold change from normal (Day 1): 11.81 fold
Slc34a3 mean fold change from normal (Day 1): 0.05 fold
Slc46a3 mean fold change from normal (Day 1): 0.11 fold
Slco1a1 mean fold change from normal (Day 1): 0.18 fold
Smoc2 mean fold change from normal (Day 1): 0.06 fold
Smpdl3b mean fold change from normal (Day 1): 222.02 fold
Snx31 mean fold change from normal (Day 1): 0.06 fold
Socs1 mean fold change from normal (Day 1): 77.54 fold
Sox4 mean fold change from normal (Day 1): 12.86 fold
Sox9 mean fold change from normal (Day 1): 24.10 fold
Spaca7 mean fold change from normal (Day 1): 27.30 fold
Spink6 mean fold change from normal (Day 1): 46.74 fold
Spp1 mean fold change from normal (Day 1): 113.22 fold
Spred3 mean fold change from normal (Day 1): 6.01 fold
Spsb1 mean fold change from normal (Day 1): 11.68 fold
Spt1c3 mean fold change from normal (Day 1): 0.07 fold
St8sia2 mean fold change from normal (Day 1): 3.07 fold
Stil mean fold change from normal (Day 1): 13.84 fold
Stk32a mean fold change from normal (Day 1): 10.38 fold
Stra6 mean fold change from normal (Day 1): 1.19 fold
Susd2 mean fold change from normal (Day 1): 0.18 fold
Sycn mean fold change from normal (Day 1): 0.07 fold
Synpr mean fold change from normal (Day 1): 0.23 fold
Sytl2 mean fold change from normal (Day 1): 3.75 fold
Tagln2 mean fold change from normal (Day 1): 8.92 fold
Tbx10 mean fold change from normal (Day 1): 0.06 fold
Timd2 mean fold change from normal (Day 1): 7.27 fold
Timp1 mean fold change from normal (Day 1): 175.24 fold
Tlr2 mean fold change from normal (Day 1): 6.43 fold
Tmem25 mean fold change from normal (Day 1): 0.11 fold
Tmem26 mean fold change from normal (Day 1): 0.10 fold
Tmem207 mean fold change from normal (Day 1): 0.01 fold
Tmsb10 mean fold change from normal (Day 1): 19.04 fold
Tnc mean fold change from normal (Day 1): 13.27 fold
Tnfaip3 mean fold change from normal (Day 1): 1.97 fold
Tnfrsf23 mean fold change from normal (Day 1): 18.16 fold
Top2a mean fold change from normal (Day 1): 5.38 fold
Tpx2 mean fold change from normal (Day 1): 3.87 fold
Tril mean fold change from normal (Day 1): 0.07 fold
Tsc22d1 mean fold change from normal (Day 1): 8.11 fold
Ttc36 mean fold change from normal (Day 1): 0.04 fold
Ttr mean fold change from normal (Day 1): 0.05 fold
Tyrobp mean fold change from normal (Day 1): 1.26 fold
Ugt3a1 mean fold change from normal (Day 1): 0.18 fold
Uhrf1 mean fold change from normal (Day 1): 16.90 fold
Upp2 mean fold change from normal (Day 1): 0.25 fold
Vcam1 mean fold change from normal (Day 1): 13.66 fold
Vill mean fold change from normal (Day 1): 0.09 fold
Vmn1r18 mean fold change from normal (Day 1): 0.02 fold
Vmn1r19 mean fold change from normal (Day 1): 0.03 fold
Vmn1r20 mean fold change from normal (Day 1): 0.02 fold
Vmn1r-ps11 mean fold change from normal (Day 1): 0.02 fold
Vstm2a mean fold change from normal (Day 1): 0.04 fold
Vtcn1 mean fold change from normal (Day 1): 64.93 fold
Vwce mean fold change from normal (Day 1): 0.06 fold
Wfdc15b mean fold change from normal (Day 1): 0.02 fold
Ybx2 mean fold change from normal (Day 1): 0.08 fold
7SK RNA mean fold change from normal (Day 2): 0.04 fold
2310042D19Rik mean fold change from normal (Day 2): 0.08 fold
4930533I22Rik mean fold change from normal (Day 2): 0.09 fold
4933417A18Rik mean fold change from normal (Day 2): 0.07 fold
8430408G22Rik mean fold change from normal (Day 2): 0.23 fold
9030619P08Rik mean fold change from normal (Day 2): 0.05 fold
Slc2a5 mean fold change from normal (Day 2): 0.09 fold
Slc4a1 mean fold change from normal (Day 2): 0.09 fold
Slc5a4a mean fold change from normal (Day 2): 0.37 fold
Slc5a12 mean fold change from normal (Day 2): 0.34 fold
Slc6a12 mean fold change from normal (Day 2): 0.13 fold
Slc7a13 mean fold change from normal (Day 2): 0.02 fold
Slc28a1 mean fold change from normal (Day 2): 0.19 fold
Slc34a1 mean fold change from normal (Day 2): 0.11 fold
Slc34a2 mean fold change from normal (Day 2): 16.20 fold
Slc34a3 mean fold change from normal (Day 2): 0.05 fold
Slc46a3 mean fold change from normal (Day 2): 0.36 fold
Slco1a1 mean fold change from normal (Day 2): 0.16 fold
Smoc2 mean fold change from normal (Day 2): 0.06 fold
Smpdl3b mean fold change from normal (Day 2): 124.22 fold
Snx31 mean fold change from normal (Day 2): 0.05 fold
Socs1 mean fold change from normal (Day 2): 53.23 fold
Sox4 mean fold change from normal (Day 2): 13.93 fold
Sox9 mean fold change from normal (Day 2): 49.89 fold
Spaca7 mean fold change from normal (Day 2): 74.80 fold
Spink6 mean fold change from normal (Day 2): 13.93 fold
Spp1 mean fold change from normal (Day 2): 174.85 fold
Spred3 mean fold change from normal (Day 2): 11.03 fold
Spsb1 mean fold change from normal (Day 2): 13.04 fold
Spt1c3 mean fold change from normal (Day 2): 0.11 fold
St8sia2 mean fold change from normal (Day 2): 2.10 fold
Stil mean fold change from normal (Day 2): 32.74 fold
Stk32a mean fold change from normal (Day 2): 7.59 fold
Stra6 mean fold change from normal (Day 2): 1.95 fold
Susd2 mean fold change from normal (Day 2): 0.07 fold
Sycn mean fold change from normal (Day 2): 0.07 fold
Synpr mean fold change from normal (Day 2): 0.02 fold
Sytl2 mean fold change from normal (Day 2): 5.53 fold
Tagln2 mean fold change from normal (Day 2): 6.40 fold
Tbx10 mean fold change from normal (Day 2): 0.10 fold
Timd2 mean fold change from normal (Day 2): 2.97 fold
Timp1 mean fold change from normal (Day 2): 194.76 fold
Tlr2 mean fold change from normal (Day 2): 12.76 fold
Tmem25 mean fold change from normal (Day 2): 0.34 fold
Tmem26 mean fold change from normal (Day 2): 0.07 fold
Tmem207 mean fold change from normal (Day 2): 0.02 fold
Tmsb10 mean fold change from normal (Day 2): 18.72 fold
Tnc mean fold change from normal (Day 2): 9.63 fold
Tnfaip3 mean fold change from normal (Day 2): 3.85 fold
Tnfrsf23 mean fold change from normal (Day 2): 7.62 fold
Top2a mean fold change from normal (Day 2): 15.75 fold
Tpx2 mean fold change from normal (Day 2): 10.97 fold
Tril mean fold change from normal (Day 2): 0.43 fold
Tsc22d1 mean fold change from normal (Day 2): 6.92 fold
Ttc36 mean fold change from normal (Day 2): 0.10 fold
Ttr mean fold change from normal (Day 2): 0.04 fold
Tyrobp mean fold change from normal (Day 2): 1.65 fold
Ugt3a1 mean fold change from normal (Day 2): 0.07 fold
Uhrf1 mean fold change from normal (Day 2): 31.75 fold
Upp2 mean fold change from normal (Day 2): 0.11 fold
Vcam1 mean fold change from normal (Day 2): 30.80 fold
Vill mean fold change from normal (Day 2): 0.28 fold
Vmn1r18 mean fold change from normal (Day 2): 0.01 fold
Vmn1r19 mean fold change from normal (Day 2): 0.02 fold
Vmn1r20 mean fold change from normal (Day 2): 0.34 fold
Vmn1r-ps11 mean fold change from normal (Day 2): 0.03 fold
Vstm2a mean fold change from normal (Day 2): 0.05 fold
Vtcn1 mean fold change from normal (Day 2): 44.16 fold
Vwce mean fold change from normal (Day 2): 0.08 fold
Wfdc15b mean fold change from normal (Day 2): 0.05 fold
Ybx2 mean fold change from normal (Day 2): 0.12 fold
7SK RNA mean fold change from normal (Day 3): 0.08 fold
2310042D19Rik mean fold change from normal (Day 3): 0.47 fold
4930533I22Rik mean fold change from normal (Day 3): 0.22 fold
4933417A18Rik mean fold change from normal (Day 3): 0.49 fold
8430408G22Rik mean fold change from normal (Day 3): 0.34 fold
9030619P08Rik mean fold change from normal (Day 3): 0.02 fold
Slc2a5 mean fold change from normal (Day 3): 0.21 fold
Slc4a1 mean fold change from normal (Day 3): 0.18 fold
Slc5a4a mean fold change from normal (Day 3): 0.51 fold
Slc5a12 mean fold change from normal (Day 3): 0.38 fold
Slc6a12 mean fold change from normal (Day 3): 0.26 fold
Slc7a13 mean fold change from normal (Day 3): 0.11 fold
Slc28a1 mean fold change from normal (Day 3): 0.18 fold
Slc34a1 mean fold change from normal (Day 3): 0.33 fold
Slc34a2 mean fold change from normal (Day 3): 7.59 fold
Slc34a3 mean fold change from normal (Day 3): 0.09 fold
Slc46a3 mean fold change from normal (Day 3): 0.57 fold
Slco1a1 mean fold change from normal (Day 3): 0.19 fold
Smoc2 mean fold change from normal (Day 3): 1.83 fold
Smpdl3b mean fold change from normal (Day 3): 111.13 fold
Snx31 mean fold change from normal (Day 3): 0.07 fold
Socs1 mean fold change from normal (Day 3): 43.48 fold
Sox4 mean fold change from normal (Day 3): 11.69 fold
Sox9 mean fold change from normal (Day 3): 52.43 fold
Spaca7 mean fold change from normal (Day 3): 18.32 fold
Spink6 mean fold change from normal (Day 3): 9.16 fold
Spp1 mean fold change from normal (Day 3): 63.01 fold
Spred3 mean fold change from normal (Day 3): 8.99 fold
Spsb1 mean fold change from normal (Day 3): 4.64 fold
Spt1c3 mean fold change from normal (Day 3): 1.02 fold
St8sia2 mean fold change from normal (Day 3): 10.17 fold
Stil mean fold change from normal (Day 3): 10.68 fold
Stk32a mean fold change from normal (Day 3): 5.33 fold
Stra6 mean fold change from normal (Day 3): 8.56 fold
Susd2 mean fold change from normal (Day 3): 0.32 fold

— patent US10119168B2, “Methods for the treatment of kidney fibrosis” (priority 2014, dated 2018)
